Experimental data from the Kinase Knowledgebase extract (Sharma et al. 2016).

Biological target: MAPK14 (UniProt Q16539)
Assay: Inhibition of MAPK14 Kinase Activity

Chain of MAPK14 (Q16539 whole entry, looked up): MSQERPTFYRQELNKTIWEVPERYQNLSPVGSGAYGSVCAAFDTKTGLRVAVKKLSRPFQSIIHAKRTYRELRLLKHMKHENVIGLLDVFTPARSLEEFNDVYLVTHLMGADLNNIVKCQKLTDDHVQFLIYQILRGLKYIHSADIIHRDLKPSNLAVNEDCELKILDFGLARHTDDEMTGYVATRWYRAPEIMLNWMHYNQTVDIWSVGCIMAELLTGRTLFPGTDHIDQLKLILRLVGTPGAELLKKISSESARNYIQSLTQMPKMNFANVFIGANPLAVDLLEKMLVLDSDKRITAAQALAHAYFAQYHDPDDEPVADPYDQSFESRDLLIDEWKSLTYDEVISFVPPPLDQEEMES

| SMILES | IC50 [µM] |
| --- | --- |
| CCNC(=O)C(=O)c1cn(C)c2nc(OC)c(C(=O)N3C[C@H](C)N(Cc4ccc(F)cc4)C[C@H]3C)cc12 | 0.02 |
| COCn1ccc2cc(C(=O)N3CCC(Cc4ccc(F)cc4)CC3)c(OC)nc21 | 0.34 |
| COCn1cc(C(=O)C(=O)NC(C)C)c2cc(C(=O)N3C[C@H](C)N(Cc4ccc(F)cc4)C[C@H]3C)c(OC)nc21 | 0.06 |
| COc1nc2[nH]cc(C(=O)C(=O)N3CC[C@@H](O)C3)c2cc1C(=O)N1CCC(Cc2ccc(F)cc2)CC1 | 0.032 |
| COCC(=O)c1c[nH]c2nc(OC)c(C(=O)N3CCN(Cc4ccc(F)cc4)C[C@H]3C)cc12 | 0.076 |
| COc1nc2[nH]cc(C(=O)C(=O)N(C)C)c2cc1C(=O)N1CCC(Cc2ccc(F)cc2)CC1 | 0.06 |
| COc1cc2[nH]ccc2nc1C(=O)N1C[C@H](C)N(Cc2ccc(F)cc2)C[C@H]1C | 0.041 |
| COCn1cc(C(=O)C(=O)N2CCCC2)c2cc(C(=O)N3CCC(Cc4ccc(F)cc4)CC3)c(OC)nc21 | 0.079 |
| CNC(=O)C(=O)c1c[nH]c2nc(OC)c(C(=O)N3CCC(Cc4ccc(F)cc4)CC3)cc12 | 0.044 |
| COc1nc2c(cc1C(=O)N1CCC(Cc3ccc(F)cc3)CC1)c(C(=O)C(=O)N1CCCC1)cn2C | 0.035 |

Second part, the compound after the results:

| IC50 [µM] | SMILES |
| --- | --- |
| 0.039 | COc1nc2[nH]cc(C(=O)C(=O)NN3CCCC3)c2cc1C(=O)N1CCC(Cc2ccc(F)cc2)CC1 |
| 0.05 | COc1nc2[nH]cc(C(=O)C(=O)N3CCCC3)c2cc1C(=O)N1CCC(Cc2ccc(F)cc2)CC1 |
| 0.056 | COc1nc2[nH]cc(C(=O)C(=O)NCCO)c2cc1C(=O)N1CCC(Cc2ccc(F)cc2)CC1 |
| 0.063 | CCN(C)C(=O)C(=O)c1c[nH]c2nc(OC)c(C(=O)N3CCC(Cc4ccc(F)cc4)CC3)cc12 |
| 0.066 | C[C@@H]1CN(Cc2ccc(F)cc2)[C@@H](C)CN1C(=O)c1nc2cc[nH]c2cc1Cl |
| 0.035 | COc1nc2[nH]ccc2cc1C(=O)N1C[C@H](C)N(Cc2ccc(F)cc2)C[C@H]1C |
